Data taken from the NIST ThermoML archive (doi:10.1016/j.jct.2013.09.030).
Numbers after ± are expanded uncertainties.

Experiment: cn = amount concentration of the nth substance listed, in mol/dm3
Details: 303.15 K; 101 kPa; Liquid; 4510 conductivity meter (Jenway, UK); c1 = 0.0005258

Work on `CC1=C(C(=O)O)N2C(=O)[C@@H](NC(=O)[C@H](N)C3=CCC=CC3)[C@H]2SC1` [Cefradin] + O yielded an electrical conductivity of 0.000611 ± 0.0002 S/m.
